For the test, the target named is T1, His tagged full-length PTP1B protein (Homo sapiens, UniProt P18031).
T1 construct: made in house
T1 sequence (P18031 with tags, fused parts or gaps): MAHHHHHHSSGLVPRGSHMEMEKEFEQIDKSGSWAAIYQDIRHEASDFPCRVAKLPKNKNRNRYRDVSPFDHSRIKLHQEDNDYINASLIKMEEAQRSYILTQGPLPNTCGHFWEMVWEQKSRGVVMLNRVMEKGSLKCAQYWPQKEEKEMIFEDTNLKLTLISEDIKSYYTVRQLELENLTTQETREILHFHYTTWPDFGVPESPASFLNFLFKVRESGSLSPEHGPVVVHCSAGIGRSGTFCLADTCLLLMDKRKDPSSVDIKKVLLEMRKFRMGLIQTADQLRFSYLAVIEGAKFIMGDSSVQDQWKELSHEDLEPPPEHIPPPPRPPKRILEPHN
The test can be described thus: Mobility Shift Assay (MSA) used to determine potency of PTP1B inhibitors. The class given is biochemical. To be noted: Table 2. As for the experimental part: The enzymatic assay used to determine activity is a mobility shift assay using a LabChip EZ Reader by Caliper Life Sciences. The enzymatic reaction was carried out in assay buffer (50 mM HEPES pH 7.5, 1 mM EGTA, 10 mM EDTA, 0.01% Tween® 20, and 2 mM DTT). […] The enzyme (at 0.5 nM) was incubated with compound for 10 minutes at room temperature. […] The % inhibition was then used to calculate the IC50 values.

Some results are limits rather than exact numbers.

A word on the IC50: it is the concentration that gives 50% inhibition. On to `O=C1CN(c2c(O)cc3ccc(C4=CCOC4)cc3c2F)S(=O)(=O)N1` [Compound 263, 5-[7-(2,5-dihydrofuran-3-yl)-1-fluoro-3-hydroxynaphthalen-2-yl]-1λ^6,2,5-thiadiazolidine-1,1,3-trione], for which the half-maximal inhibitory concentration (IC50) lay within 10 to 100 nM.

On to `O=C1CN(c2c(O)cc3ccc(C4=CCN(S(=O)(=O)C5CCC5)C4)cc3c2F)S(=O)(=O)N1` [Compound 316, 5-{7-[1-(cyclobutanesulfonyl)-2,5-dihydro-1H-pyrrol-3-yl]-1-fluoro-3-hydroxynaphthalen-2-yl}-1λ^6,2,5-thiadiazolidine-1,1,3-trione], for which the IC50 is less than 1 nM. `O=C1CN(c2c(O)cc3ccc(C4=CCN(S(=O)(=O)c5ccoc5)C4)cc3c2F)S(=O)(=O)N1` [Compound 312, 5-{1-fluoro-7-[1-(furan-3-sulfonyl)-2,5-dihydro-1H-pyrrol-3-yl]-3-hydroxynaphthalen-2-yl}-1λ^6,2,5-thiadiazolidine-1,1,3-trione]: the IC50 was less than 1 nM. Regarding `O=C1CN(c2c(O)cc3ccc(OCCCn4cccn4)cc3c2F)S(=O)(=O)N1` [Compound 183, 5-{1-fluoro-3-hydroxy-7-[3-(1H-pyrazol-1-yl)propoxy]naphthalen-2-yl}-1λ^6,2,5-thiadiazolidine-1,1,3-trione], the half-maximal inhibitory concentration (IC50) was 1 to 10 nM.

In the case of `Cc1nn(C)cc1S(=O)(=O)N1CC=C(c2ccc3cc(O)c(N4CC(=O)NS4(=O)=O)c(F)c3c2)C1` [Compound 310, 5-{7-[1-(1,3-dimethyl-1H-pyrazole-4-sulfonyl)-2,5-dihydro-1H-pyrrol-3-yl]-1-fluoro-3-hydroxynaphthalen-2-yl}-1λ^6,2,5-thiadiazolidine-1,1,3-trione], the IC50 is 1 to 10 nM.

On to `O=C1CN(c2c(O)cc3ccc(-c4cccnc4)cc3c2F)S(=O)(=O)N1` [Compound 266, 5-[1-fluoro-3-hydroxy-7-(pyridin-3-yl)naphthalen-2-yl]-1λ^6,2,5-thiadiazolidine-1,1,3-trione], for which the IC50 is greater than 100 nM. Take `CCC(=O)CCOc1ccc2cc(O)c(N3CC(=O)NS3(=O)=O)c(F)c2c1` [Compound 155, 5-{1-fluoro-3-hydroxy-7-[(3-oxopentyl)oxy]naphthalen-2-yl}-1λ^6,2,5-thiadiazolidine-1,1,3-trione]: the half-inhibitory concentration (IC50) was 1 to 10 nM. In the case of `CCN(CC)C(=O)COc1ccc2cc(O)c(N3CC(=O)NS3(=O)=O)c(F)c2c1` [Compound 282, N,N-diethyl-2-{[8-fluoro-6-hydroxy-7-(1,1,4-trioxo-1λ^6,2,5-thiadiazolidin-2-yl)naphthalen-2-yl]oxy}acetamide], the IC50 lay within 10 to 100 nM. The same measure for `O=C(COc1ccc2cc(O)c(N3CC(=O)NS3(=O)=O)c(F)c2c1)NCCC1CC1` [Compound 281, N-(2-cyclopropylethyl)-2-{[8-fluoro-6-hydroxy-7-(1,1,4-trioxo-1λ^6,2,5-thiadiazolidin-2-yl)naphthalen-2-yl]oxy}acetamide]: 10 to 100 nM; for `CC(C)(N)CCOc1ccc2cc(O)c(N3CC(=O)NS3(=O)=O)c(F)c2c1` [Compound 165, 5-[7-(3-amino-3-methylbutoxy)-1-fluoro-3-hydroxynaphthalen-2-yl]-1λ^6,2,5-thiadiazolidine-1,1,3-trione]: 1 to 10 nM; for `O=C1CN(c2c(O)cc3ccc(CCC4CC4)cc3c2F)S(=O)(=O)N1` [Compound 209, 5-[7-(2-cyclopropylethyl)-1-fluoro-3-hydroxynaphthalen-2-yl]-1λ^6,2,5-thiadiazolidine-1,1,3-trione]: 10 to 100 nM. For `O=C1CN(c2c(O)cc3ccc(C4CCS(=O)(=O)CC4)cc3c2F)S(=O)(=O)N1` [Compound 248, 5-[7-(1,1-dioxo-1λ^6-thian-4-yl)-1-fluoro-3-hydroxynaphthalen-2-yl]-1λ^6,2,5-thiadiazolidine-1,1,3-trione], the IC50 is greater than 100 nM.

As for `COCCOc1ccc2cc(O)c(N3CC(=O)NS3(=O)=O)c(F)c2c1` [Compound 119, 5-[1-fluoro-3-hydroxy-7-(2-methoxyethoxy)naphthalen-2-yl]-1λ^6,2,5-thiadiazolidine-1,1,3-trione], the half-inhibitory concentration (IC50) is 1 to 10 nM. With `O=C1CN(c2c(O)cc3ccc(NCCCC(F)(F)F)cc3c2F)S(=O)(=O)N1` [Compound 166, 5-{1-fluoro-3-hydroxy-7-[(4,4,4-trifluorobutyl)amino]naphthalen-2-yl}-1λ^6,2,5-thiadiazolidine-1,1,3-trione], the concentration for half-maximal inhibition (IC50) was greater than 100 nM. To `COCC1(CCOc2ccc3cc(O)c(N4CC(=O)NS4(=O)=O)c(F)c3c2)CC1` [Compound 160, 5-(1-fluoro-3-hydroxy-7-{2-[1-(methoxymethyl)cyclopropyl]ethoxy}naphthalen-2-yl)-1λ^6,2,5-thiadiazolidine-1,1,3-trione] belongs 1 to 10 nM; to `Nc1cccc(CS(=O)(=O)N2CC=C(c3ccc4cc(O)c(N5CC(=O)NS5(=O)=O)c(F)c4c3)C2)c1` [Compound 194, 5-(7-{1-[(3-aminophenyl)methanesulfonyl]-2,5-dihydro-1H-pyrrol-3-yl}-1-fluoro-3-hydroxynaphthalen-2-yl)-1λ^6,2,5-thiadiazolidine-1,1,3-trione], 1 to 10 nM. `O=C1CN(c2c(O)cc3ccc(NCCC4CC4)cc3c2F)S(=O)(=O)N1` [Compound 224, 5-{7-[(2-cyclopropylethyl)amino]-1-fluoro-3-hydroxynaphthalen-2-yl}-1λ^6,2,5-thiadiazolidine-1,1,3-trione]: the IC50 fell in the range of 1 to 10 nM.

Take `O=C1CN(c2c(O)cc3ccc(OCC(F)(F)F)cc3c2F)S(=O)(=O)N1` [Compound 197, 5-[1-fluoro-3-hydroxy-7-(2,2,2-trifluoroethoxy)naphthalen-2-yl]-1λ^6,2,5-thiadiazolidine-1,1,3-trione]: the IC50 was greater than 100 nM. Turning to `Nc1ccc(CS(=O)(=O)N2CC=C(c3ccc4cc(O)c(N5CC(=O)NS5(=O)=O)c(F)c4c3)C2)cc1` [Compound 184, 5-(7-{1-[(4-aminophenyl)methanesulfonyl]-2,5-dihydro-1H-pyrrol-3-yl}-1-fluoro-3-hydroxynaphthalen-2-yl)-1λ^6,2,5-thiadiazolidine-1,1,3-trione], the half-inhibitory concentration (IC50) was in the range of 1 to 10 nM.

As for `COc1ccc2cc(O)c(N3CC(=O)NS3(=O)=O)c(F)c2c1Cl` [Compound 234, 5-(8-chloro-1-fluoro-3-hydroxy-7-methoxynaphthalen-2-yl)-1λ^6,2,5-thiadiazolidine-1,1,3-trione], the half-maximal inhibitory concentration (IC50) lay within 10 to 100 nM. As to `C[C@H](O)CCCc1ccc2cc(O)c(N3CC(=O)NS3(=O)=O)c(F)c2c1` [Compound 153, 5-{1-fluoro-3-hydroxy-7-[(4S)-4-hydroxypentyl]naphthalen-2-yl}-1λ^6,2,5-thiadiazolidine-1,1,3-trione], the half-inhibitory concentration (IC50) was in the range of 1 to 10 nM.

Turning to `CC(C)CCOc1ccc2cc(O)c(N3CC(=O)NS3(=O)=O)c(F)c2c1` [Compound 204, 5-[1-fluoro-3-hydroxy-7-(3-methylbutoxy)naphthalen-2-yl]-1λ^6,2,5-thiadiazolidine-1,1,3-trione], the half-maximal inhibitory concentration (IC50) is less than 1 nM. The same measure for `Cc1c[nH]c(-c2ccc3cc(O)c(N4CC(=O)NS4(=O)=O)c(F)c3c2)n1` [Compound 225, 5-[1-fluoro-3-hydroxy-7-(4-methyl-1H-imidazol-2-yl)naphthalen-2-yl]-1λ^6,2,5-thiadiazolidine-1,1,3-trione]: 10 to 100 nM; for `CC(C)(C)OCCOc1ccc2cc(O)c(N3CC(=O)NS3(=O)=O)c(F)c2c1` [Compound 217, 5-[7-(2-tert-butoxyethoxy)-1-fluoro-3-hydroxynaphthalen-2-yl]-1λ^6,2,5-thiadiazolidine-1,1,3-trione]: 1 to 10 nM; for `CS(=O)(=O)N1CC(Nc2ccc3cc(O)c(N4CC(=O)NS4(=O)=O)c(F)c3c2)C1` [Compound 128, 5-(1-fluoro-3-hydroxy-7-{[1-(methanesulfonyl)azetidin-3-yl]amino}naphthalen-2-yl)-1λ^6,2,5-thiadiazolidine-1,1,3-trione]: 1 to 10 nM. With `N#CCCCCS(=O)(=O)N1CC=C(c2ccc3cc(O)c(N4CC(=O)NS4(=O)=O)c(F)c3c2)C1` [Compound 293, 5-{3-[8-fluoro-6-hydroxy-7-(1,1,4-trioxo-1λ^6,2,5-thiadiazolidin-2-yl)naphthalen-2-yl]-2,5-dihydro-1H-pyrrole-1-sulfonyl}pentanenitrile], the IC50 was less than 1 nM. The same measure for `O=C1CN(c2c(O)cc3ccc(C4CC4)cc3c2F)S(=O)(=O)N1` [Compound 236, 5-(7-cyclopropyl-1-fluoro-3-hydroxynaphthalen-2-yl)-1λ^6,2,5-thiadiazolidine-1,1,3-trione]: greater than 100 nM; for `O=C1CN(c2c(O)cc3ccc(CNCC4CC4)cc3c2F)S(=O)(=O)N1` [Compound 161, 5-(7-{[(cyclopropylmethyl)amino]methyl}-1-fluoro-3-hydroxynaphthalen-2-yl)-1λ^6,2,5-thiadiazolidine-1,1,3-trione]: 10 to 100 nM; for `COCCNCCOc1ccc2cc(O)c(N3CC(=O)NS3(=O)=O)c(F)c2c1` [Compound 138, 5-(1-fluoro-3-hydroxy-7-{2-[(2-methoxyethyl)amino]ethoxy}naphthalen-2-yl)-1λ^6,2,5-thiadiazolidine-1,1,3-trione]: 10 to 100 nM. For `CNCCOc1ccc2cc(O)c(N3CC(=O)NS3(=O)=O)c(F)c2c1` [Compound 143, 5-{1-fluoro-3-hydroxy-7-[2-(methylamino)ethoxy]naphthalen-2-yl}-1λ^6,2,5-thiadiazolidine-1,1,3-trione], the IC50 lay within 10 to 100 nM.

For the origin of these results see patent publication US20230019236A1, “PROTEIN TYROSINE PHOSPHATASE INHIBITORS AND METHODS OF USE THEREOF” (Calico Life Sciences LLC, priority 2019, published 2023).
